Measured values reported in patent publication US8183387B2, “Phenylpyrazole derivatives” (Taisho Pharmaceutical Co., Ltd, priority 2007, dated 2012).

Experiments:
[1] = Metabolic stability test in human liver; assay type: in vitro ADME; conditions: liver microsomes, pH 7.4; human liver microsome 1 mg protein/mL, test compound 1 μM, 37° C.
Procedure: Using human liver microsome (Xenotech, H0630), the in vitro metabolic half-life was calculated. A reaction solution (300 μL) was prepared to contain a test compound at 1 μM in 250 mM Na—K-phosphate buffer (pH 7.4) containing, at final concentrations, 2.4 mM MgCl2, 1.5 mM glucose-6-phosphate (G-6-P), 0.18 U/mL glucose-6-phosphate dehydrogenase (G-6-P DH), 69 mM KCl, 0.16 mM (3-nicotinamide-adenine dinucleotide phosphate, oxidized form (NADP) and 1 mg microsomal protein/mL. After pre-incubation at 37° C. for 5 minutes, the NADP solution was added to initiate the reaction. The incubation time was set to 0, 10, 20, 30, 45 or 60 minutes. The reaction was stopped by addition of a CH3CN:CH3OH (1:1) solution in the same volume as that of the reaction solution. The sample after the reaction was centrifuged at 3639×g at 4° C. for 10 minutes, and the resulting supernatant was analyzed by LC/MS. Using the time period during which linearity was observed, the metabolic half-life was calculated from the slope.

human H3 receptor [2] = biological target: T1, human H3 receptor (Homo sapiens, UniProt Q9Y5N1); experiment: H3 receptor binding test (R(−)-α-methyl[3H]histamine); parameters: purchased Euroscreen ES-392-M; host or cells: CHO-K1; conditions: inhibition of R(−)-α-methyl[3H]histamine (2 nM) binding, membrane of human H3 receptor-expressing CHO-K1 cells
Procedure: A membrane preparation of human H3 receptor-expressing CHO-K1 cells (Euroscreen, ES-392-M, 15 μg protein/200 μl), R(−)-α-methyl[^3H]histamine (Amersham, TRK-1017, specific activity: 1.74 TBq/mmol, 2 nM) and a test drug were reacted at room temperature for 1 hour. After completion of the reaction, the reaction mixture was subjected to suction filtration through a 0.3% polyethyleneimine-treated glass filter (GF/C). The glass filter was washed five times with 50 mM Tris-HCl washing solution (pH 7.4) containing 5 mM EDTA. After washing, the glass filter was dried and a scintillator was added thereto, followed by measurement of radioactivity on the filter using a liquid scintillation counter.
A fixed concentration (2 nM) of R(−)-α-methyl[^3H]histamine was reacted under the above conditions with each test drug at various concentrations to obtain an inhibition curve.

human H3 receptor [3] = biological target: T1, human H3 receptor; experiment: [35S]GTP-γ-S binding test
Procedure: After completion of the reaction, [^35S]GTP-γ-S (0.2 nM) was added and reacted for an additional 30 minutes. After completion of the reaction, the reaction mixture was subjected to suction filtration through a glass filter (GF/C). The glass filter was washed three times with 20 mM HEPES washing solution (pH 7.4) containing 100 mM sodium chloride and 1 mM magnesium chloride. After washing, the glass filter was dried and a scintillator was added thereto, followed by measurement of radioactivity on the filter using a liquid scintillation counter.
Binding of [^35S]GTP-γ-S in the absence of R(−)-α-methylhistamine was defined as non-specific binding, and the difference between total binding in the presence of R(−)-α-methylhistamine and non-specific binding was defined as specific binding of [^35S]GTP-γ-S. Fixed concentrations of [^35S]GTP-γ-S (0.2 nM) and R(−)-α-methylhistamine (100 μM) were reacted under the above conditions with each test drug at various concentrations to obtain an inhibition curve.

σ1 receptor = biological target: T2, σ1 receptor (Homo sapiens, UniProt Q99720); experiment: [3H](+)pentazocine binding test; conditions: [3H](+)pentazocine 8 nM, Jurkat cell membrane
T2 construct: host or cells: Jurkat cells (membrane)
Procedure: Affinity for σ1 receptor was evaluated in a [^3H](+)pentazocine binding test by Cerep, Inc. The σ1 receptor preparation used was the membrane of Jurkat cells. The Jurkat cell membrane was incubated with [^3H](+)pentazocine (8 nM) at 22° C. for 120 minutes.

CHL/IU cells = experiment: Cytotoxicity test; assay type: cell-based, Chinese hamster; conditions: 48 hours culture, Cell counting kit-8
Procedure: Chinese hamster lung fibroblast-derived CHL/IU cells (DS Pharma Biomedical Co., Ltd., Japan) were seeded, and the medium was replaced on the following day by another medium (MEM+2 mM L-Glutamine+10% CS (all purchased from Invitrogen)) containing a test compound at various concentrations, followed by culture for an additional 48 hours. Using a Cell counting kit-8 (Dojindo Laboratories, Japan), the survival rate of the cells was determined to obtain a curve whose horizontal axis represents the test compound concentration and whose vertical axis represents the survival rate. The curve thus obtained was used to determine the concentration of the test compound at which the survival rate was 50%. As a result, this concentration was 275, 441 and >640 mmol/L for the compounds of Examples 56, 62 and 70, respectively.

[4] = biological target: human recombinant μ receptor (Homo sapiens, UniProt P35372); experiment: [3H]diprenorphine binding test; conditions: read-out: % Inhibition (10 μM), μ receptor
Procedure: Affinity for μ receptor was evaluated in a [^3H]diprenorphine binding test by Cerep, Inc. The μ receptor preparation used was human recombinant μ receptor. […] Binding of [^3H]diprenorphine in the presence of 1 μM naltrexone was defined as non-specific binding, and the difference between total binding and non-specific binding of [^3H]diprenorphine was defined as specific binding of [^3H]diprenorphine.

[5] = biological target: T3, rat recombinant κ receptor (Rattus norvegicus, UniProt P34975); experiment: [3H]U69593 binding test; conditions: [3H]U69593 1 nM
T3 construct: Cerep, Inc. (contract assay)
Procedure: Affinity for κ receptor was evaluated in a [^3H]U69593 binding test by Cerep, Inc. The κ receptor preparation used was rat recombinant κ receptor. The rat recombinant κ receptor was incubated with [^3H]U69593 (1 nM) at 22° C. for 60 minutes.

[6] = Distribution test in rats; assay type: in vivo, rat; conditions: SD rats, single oral dose 3 mg/kg (2.75 mg/kg as a free form); plasma and organs at 1, 2, 4, 8 and 24 hours
Procedure: SD rats were used and orally administered once with the compound of Example 70 at a dose of 3 mg/kg (2.75 mg/kg as a free form) to confirm the tissue distribution of the compound in plasma, brain, liver, kidney, spleen, lung, heart, muscle, fat, testis, bone marrow and adrenal gland at 1, 2, 4, 8 and 24 hours after administration. For quantification, high performance liquid chromatography/tandem mass spectrometry (LC-MS/MS) was used.

Sprague-Dawley rats = experiment: Social recognition test; assay type: in vivo, rat
Procedure: This experiment was performed with Sprague-Dawley rats (male) according to the reported method (Shimazaki et al., European Journal of Pharmacology, 575, 94-97, 2007). Adult rats (9 weeks of age) were placed in a test cage and acclimated for 30 minutes. After 30 minutes, juvenile rats (4 weeks of age) were placed in the same test cage containing the adult rats, and allowed to stand for 5 minutes. During this 5 minutes, the time taken for the adult rats to show social behavior (sniffing, grooming, following) to the juvenile rats was measured (first exploratory time). Then, the rats were removed from the test cage and returned to their respective home cages. After 85 minutes, the adult rats were placed again in the test cage and acclimated for 30 minutes. The same juvenile rats as used in the first exploratory were placed in the test cage, followed by measuring the time taken for the adult rats to show social behavior (sniffing, grooming, following) to the juvenile rats during 5 minutes (second exploratory time). The social recognition was expressed as the ratio of second exploratory time/first exploratory time. A test substance (the compound of Example 70) was orally administered to the adult rats immediately after their first social behavior.

[7] = biological target: T4, human recombinant δ receptor (Homo sapiens, UniProt P41143); experiment: [3H]DADLE binding test; conditions: [3H]DADLE 0.5 nM
T4 construct: Cerep, Inc. (contract assay)
Procedure: Affinity for δ receptor was evaluated in a [^3H]DADLE binding test by Cerep, Inc. The δ receptor preparation used was human recombinant δ receptor. The human recombinant δ receptor was incubated with [^3H]DADLE (0.5 nM) at 22° C. for 120 minutes.

T2 sequence (Q99720 whole entry): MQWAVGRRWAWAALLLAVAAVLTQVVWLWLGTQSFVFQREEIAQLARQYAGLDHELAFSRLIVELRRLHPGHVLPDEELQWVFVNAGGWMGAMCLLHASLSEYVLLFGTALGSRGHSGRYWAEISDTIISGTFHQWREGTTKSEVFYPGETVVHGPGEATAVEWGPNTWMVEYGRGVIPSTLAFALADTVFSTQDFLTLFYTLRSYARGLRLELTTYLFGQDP
T1 sequence (Q9Y5N1 whole entry): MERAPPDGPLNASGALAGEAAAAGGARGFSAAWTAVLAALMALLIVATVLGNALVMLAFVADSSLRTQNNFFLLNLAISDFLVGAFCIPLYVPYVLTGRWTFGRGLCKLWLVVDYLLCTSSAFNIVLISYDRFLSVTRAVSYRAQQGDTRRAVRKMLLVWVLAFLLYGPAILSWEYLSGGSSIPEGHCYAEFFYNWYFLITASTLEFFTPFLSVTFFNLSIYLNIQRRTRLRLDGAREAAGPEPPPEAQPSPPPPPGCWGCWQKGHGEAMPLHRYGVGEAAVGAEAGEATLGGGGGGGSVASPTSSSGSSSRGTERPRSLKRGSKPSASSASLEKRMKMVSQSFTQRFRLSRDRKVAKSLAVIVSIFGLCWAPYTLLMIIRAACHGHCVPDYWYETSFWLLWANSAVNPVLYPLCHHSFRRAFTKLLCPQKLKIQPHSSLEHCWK
T4 sequence (P41143 whole entry): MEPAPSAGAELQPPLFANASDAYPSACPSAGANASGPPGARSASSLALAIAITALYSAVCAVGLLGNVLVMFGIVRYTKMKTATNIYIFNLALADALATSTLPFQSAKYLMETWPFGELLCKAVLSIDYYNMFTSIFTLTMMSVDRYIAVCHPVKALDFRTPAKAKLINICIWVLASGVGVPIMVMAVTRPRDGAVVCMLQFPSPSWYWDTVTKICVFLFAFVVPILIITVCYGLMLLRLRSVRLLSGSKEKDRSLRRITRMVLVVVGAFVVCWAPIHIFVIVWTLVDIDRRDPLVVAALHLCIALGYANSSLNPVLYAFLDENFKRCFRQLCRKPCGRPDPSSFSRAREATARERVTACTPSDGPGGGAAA
human recombinant μ receptor, sequence (P35372 whole entry): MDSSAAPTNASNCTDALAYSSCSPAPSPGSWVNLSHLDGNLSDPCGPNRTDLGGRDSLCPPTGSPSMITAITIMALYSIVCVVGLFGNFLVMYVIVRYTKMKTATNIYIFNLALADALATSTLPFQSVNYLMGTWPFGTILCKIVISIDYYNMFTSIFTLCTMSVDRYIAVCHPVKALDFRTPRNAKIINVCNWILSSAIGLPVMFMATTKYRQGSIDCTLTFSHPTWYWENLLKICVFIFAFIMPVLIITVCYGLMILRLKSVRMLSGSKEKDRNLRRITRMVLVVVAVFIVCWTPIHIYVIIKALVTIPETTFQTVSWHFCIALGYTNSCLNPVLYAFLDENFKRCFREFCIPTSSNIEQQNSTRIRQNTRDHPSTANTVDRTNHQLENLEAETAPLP
T3 sequence (P34975 whole entry): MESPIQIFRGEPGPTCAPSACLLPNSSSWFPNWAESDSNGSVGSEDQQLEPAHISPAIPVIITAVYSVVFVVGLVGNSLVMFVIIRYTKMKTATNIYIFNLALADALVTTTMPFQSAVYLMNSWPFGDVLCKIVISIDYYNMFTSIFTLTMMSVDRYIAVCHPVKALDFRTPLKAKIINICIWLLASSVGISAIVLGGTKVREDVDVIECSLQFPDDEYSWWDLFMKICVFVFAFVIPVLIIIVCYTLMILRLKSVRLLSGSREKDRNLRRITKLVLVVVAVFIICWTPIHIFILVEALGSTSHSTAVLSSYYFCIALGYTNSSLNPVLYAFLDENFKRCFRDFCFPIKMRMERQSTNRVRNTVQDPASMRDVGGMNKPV

SMILES | IC50 (human H3 receptor [2]) | inhibition at 10 µM (σ1 receptor) | concentration of the test compound at which the survival rate was 50% (CHL/IU cells) | also measured
C[C@@H]1CCCN1CCCOc1ccc(-n2cc(C(=O)N3CCOCC3)cn2)cc1 [Example 6, 4-{[1-(4-{3-[(2R)-2-methylpyrrolidin-1-yl]propoxy}phenyl)-1H-pyrazol-4-yl]carbonyl}morpholine] | – | – | – | half-life at 1 μM [1]: ≥ 3 h
C[C@@H]1CCCN1CCCOc1ccc(-n2cc(N3CCCC3=O)cn2)cc1 [Example 30, 1-[1-(4-{3-[(2R)-2-methylpyrrolidin-1-yl]propoxy}phenyl)-1H-pyrazol-4-yl]pyrrolidine-2-one] | 3.3 nM | – | – | IC50 (human H3 receptor [3]): 1.7 nM
C[C@@H]1CCCN1CCCOc1ccc(-n2cc(C(=O)N3CCN(C)CC3)cn2)cc1 [Example 55, (4-methylpiperazin-1-yl)[1-(4-{3-[(2R)-2-methylpyrrolidin-1-yl]propoxy}phenyl)-1H-pyrazol-4-yl]methanone] | 5.2 nM | 3% | – | –
C[C@@H]1CCCN1CCCOc1ccc(-n2cc(C(=O)N3CCOCC3)cn2)cc1.Cl [Example 70, 4-{[1-(4-{3-[(2R)-2-methylpyrrolidin-1-yl]propoxy}phenyl)-1H-pyrazol-4-yl]carbonyl}morpholine monohydrochloride] | – | 28% | > 640000 µM | inhibition at 10 µM [4]: 3%; inhibition at 10 µM [5]: 17%; tissue distribution of unchanged form and major metabolites [6]: rapidly disappear from each organ; effect on cognitive functions (Sprague-Dawley rats; 10 mg/kg oral, rats, compared to vehicle group): had an enhancing effect on cognitive functions; Ratio (second exploratory time/first exploratory time) (Sprague-Dawley rats; 10 mg/kg orally to adult rats immediately after first social behavior, n = 18, p<0.01 vs vehicle): 0.66 ± 0.06^p<0.01; inhibition at 10 µM [7]: -1%

More lines, in order of falling IC50 (human H3 receptor [2]), values ahead:

IC50 (human H3 receptor [2]) | inhibition at 10 µM (σ1 receptor) | SMILES | concentration of the test compound at which the survival rate was 50% (CHL/IU cells) | also measured
8.7 nM | – | C[C@@H]1CCCN1CCCOc1ccc(-n2cc(C(=O)N3CCOCC3)cn2)cc1F [Example 62, [1-(3-fluoro-4-{3-[(2R)-2-methylpyrrolidin-1-yl]propoxy}phenyl)-1H-pyrazol-4-yl](morpholin-4-yl)methanone] | 441000 µM | –
4.1 nM | 39% | C[C@@H]1CCCN1CCCOc1ccc(-n2cc(C(=O)N3CCCOCC3)cn2)cc1 [Example 54, [1-(4-{3-[(2R)-2-methylpyrrolidin-1-yl]propoxy}phenyl)-1H-pyrazol-4-yl](1,4-oxazepan-4-yl)methanone] | – | –
2.8 nM | – | C[C@@H]1CCCN1CCCOc1ccc(-n2cc(C(=O)N3CCCC3)cn2)cc1 [Example 56, [1-(4-{3-[(2R)-2-methylpyrrolidin-1-yl]propoxy}phenyl)-1H-pyrazol-4-yl](pyrrolidin-1-yl)methanone] | 275000 µM | –
